Assay results: ChEMBL document CHEMBL4004795, “Polycycloiridals with a Cyclopentane Ring from Iris tectorum” (J Nat Prod, 2017)

Tests used:
BV-2 [1] = assay: Inhibition of LPS-induced nitric oxide production in mouse BV2 cells pretreated for 24 hrs followed by LPS-stimulation after 24 hrs by Griess assay; assay type: functional, cell-based
BV-2 [2] = assay: Potency index, ratio of curcumin IC50 to compound IC50 for inhibition of LPS-induced nitric oxide production in mouse BV2 cells; assay type: functional

Row | Structure (SMILES) | IC50 (BV-2 [1]) | Ratio IC50 (BV-2 [2])
1 | C/C(C=O)=C1\CC[C@](C)(O)[C@]23C[C@H](/C=C(C)/C=C/[C@@H]4[C@@H](C(C)(C)O)CC[C@@]4(C)O)O[C@H]2OCCC[C@H]13 | > 10 µM | –
2 | CC(C)=CCC/C(C)=C\[C@H]1C=C(CO)[C@@H]2CC[C@]3([C@H](CCCO)/C(=C(/C)C=O)CC[C@]3(C)O)[C@@H]2O1 | 0.54 µM | 3
3 | C=C(C)[C@H]1CC[C@@](C)(O)[C@@H]1/C=C/C(C)=C/[C@H]1C[C@@]23[C@H](OCCC[C@@H]2/C(=C(/C)C=O)CC[C@]3(C)O)O1 | > 10 µM | –
4 | C=C(C)[C@H]1CC[C@@](C)(O)[C@@H]1/C=C/C(C)=C/[C@H]1C[C@@]23[C@H](OCCC[C@@H]2/C(=C(\C)C=O)CC[C@]3(C)O)O1 | > 10 µM | –
5 | C=C(C)[C@@H]1CC[C@](C)(O)[C@H]1/C=C/C(C)=C/[C@H]1C[C@@]23[C@H](OCCC[C@@H]2/C(=C(/C)C=O)CC[C@]3(C)O)O1 | > 10 µM | –
6 | CC(/C=C/[C@@H]1[C@@H](C(C)(C)O)CC[C@@]1(C)O)=C\[C@H]1C[C@@]23[C@H](OCCC[C@@H]2/C(=C(\C)C=O)CC[C@]3(C)O)O1 | > 10 µM | –
7 | CC(/C=C/[C@H]1[C@H](C(C)(C)O)CC[C@]1(C)O)=C\[C@H]1C[C@@]23[C@H](OCCC[C@@H]2/C(=C(\C)C=O)CC[C@]3(C)O)O1 | > 10 µM | –
8 | COc1cc(/C=C/C(=O)CC(=O)/C=C/c2ccc(O)c(OC)c2)ccc1O [CURCUMIN] | 2.36 µM | –
